Reference: patent US5563145A, “Rapamycin 42-oximes and hydroxylamines” (American Home Products Corporation, priority 1994, dated 1996)
Read-outs that look alike come from different tables or passages of the source.

How the values were obtained:
[1] = test system: cells from the thymus of normal BALB/c mice (T-cell proliferation); assay: comitogen-induced thymocyte proliferation procedure (LAF); type: cell-based; details: for IC50: read-out: LAF IC50; for LAF ratio (compared with rapamycin): ratio >1: inhibited thymocyte proliferation to a greater extent than rapamycin; for LAF percent inhibition of T-cell proliferation: at 0.1 μM
Experimental: (§1) Immunosuppressive activity for representative compounds of this invention was evaluated in an in vitro standard pharmacological test procedure to measure the inhibition of lymphocyte proliferation (LAF) and in two in vivo standard pharmacological test procedures. The pinch skin graft test procedure measures the immunosuppressive activity of the compound tested as well as the ability of the compound tested to inhibit or treat transplant rejection. The adjuvant arthritis standard pharmacological test procedure measures the ability of the compound tested to inhibit immune mediated inflammation. The adjuvant arthritis test procedure is a standard pharmacological test procedure for rheumatoid arthritis. The procedures for these standard pharmacological test procedures are provided below.
The comitogen-induced thymocyte proliferation procedure (LAF) was used as an in vitro measure of the immunosuppressive effects of representative compounds. Briefly, cells from the thymus of normal BALB/c mice are cultured for 72 hours with PHA and IL-1 and pulsed with tritiated thymidine during the last six hours. Cells are cultured with and without various concentrations of rapamycin, cyclosporin A, or test compound. Cells are harvested and incorporated radioactivity is determined. Inhibition of lymphoproliferation is assessed as percent change in counts per minute from non-drug treated controls. For each compound evaluated, rapamycin was also evaluated for the purpose of comparison. An IC50 was obtained for each test compound as well as for rapamycin. […] The results obtained are provided as an IC50 and as the percent inhibition of T-cell proliferation at 0.1 μM. […] A positive ratio indicates immunosuppressive activity. […] Calculation of the ratio is shown below. [formula]

[2] = test system: pinch skin graft from male BALB/c donors transplanted to male C3H(H-2K) recipients; assay: in vivo pinch skin graft survival test procedure; design: species or system mice: male BALB/c donors, male C3 H(H-2K) recipients; details: 4 mg/kg, i.p.; untreated control grafts usually rejected within 6-7 days
Experimental: as §1
Representative compounds of this invention were also evaluated in an in vivo test procedure designed to determine the survival time of pinch skin graft from male BALB/c donors transplanted to male C3 H(H-2K) recipients. The method is adapted from Billingham R. E. and Medawar P. B., J. Exp. Biol. 28:385-402, (1951). Briefly, a pinch skin graft from the donor was grafted on the dorsum of the recipient as a allograft, and an isograft was used as control in the same region. The recipients were treated with either varying concentrations of test compounds intraperitoneally or orally. Rapamycin was used as a test control. Untreated recipients serve as rejection control. The graft was monitored daily and observations were recorded until the graft became dry and formed a blackened scab. This was considered as the rejection day. The mean graft survival time (number of days ±S.D.) of the drug treatment group was compared with the control group. Results are expressed as the mean survival time in days.

[3] = test system: uninjected hind paw inflammation (immune mediated, Freund's Complete Adjuvant); assay: adjuvant arthritis standard pharmacological test procedure; type: in vivo, male inbred Wistar Lewis rats; details: 2 mg/kg, oral, 7 doses, day 16; more negative = more potent
Experimental: as §1
The adjuvant arthritis standard pharmacological test procedure measures the ability of test compounds to prevent immune mediated inflammation and inhibit or treat rheumatoid arthritis. The following briefly describes the test procedure used. A group of rats (male inbread Wistar Lewis rats) are pre-treated with the compound to be tested (1 h prior to antigen) and then injected with Freud's Complete Adjuvant (FCA) in the right hind paw to induce arthritis. The rats are then orally dosed on a Monday, Wednesday, Friday schedule from day 0-14 for a total of 7 doses. Both hind paws are measured on days 16, 23, and 30. The difference in paw volume (mL) from day 16 to day 0 is determined and a percent change from control is obtained. The left hind paw (uninjected paw) inflammation is caused by T-cell mediated inflammation and is recorded as % change from control. The right hind paw inflammation, on the other hand, is caused by nonspecific inflammation. Compounds were tested at a dose of 2 mg/kg.

Candida albicans = details: in vitro and in vivo; cited from earlier work
[4] = test system: experimental allergic encephalomyelitis model; details: a model for multiple sclerosis; cited from earlier work
adjuvant arthritis model = details: a model for rheumatoid arthritis; cited from earlier work
[5] = test system: formation of IgE-like antibodies; details: in vivo; cited from earlier work
[6] = BALB/c mouse thymocytes, PHA and IL-1, 72 hours, tritiated thymidine last six hours

Row | Compound | IC50 [1, 6] [nM] | LAF ratio (compared with rapamycin) [1] | Skin graft survival (mean graft survival time ± S.D.) [2] [days] | Percent change in adjuvant arthritis versus control (uninjected paw) [3] [%] | further results
1 | 42-Deoxy-42-oxorapamycin 42-[O-(phenylmethyl)]-oxime [Example 8] | 21.7 | 0.03 | – | – | –
2 | CO[C@H]1C[C@@H]2CC[C@@H](C)[C@@](O)(O2)C(=O)C(=O)N2CCCC[C@H]2C(=O)O[C@H]([C@H](C)C[C@@H]2CCC(=NO)[C@H](OC)C2)CC(=O)[C@H](C)/C=C(\C)[C@@H](O)[C@@H](OC)C(=O)[C@H](C)C[C@H](C)/C=C/C=C/C=C/1C [Example 2, 42-Deoxo-42-(hydroxyimino)rapamycin] | 3.88 | 0.85 | 10.8 ± 0.4 | – | –
3 | CO[C@H]1C[C@@H]2CC[C@@H](C)[C@@](O)(O2)C(=O)C(=O)N2CCCC[C@H]2C(=O)O[C@H]([C@H](C)C[C@@H]2CCC(NO)[C@H](OC)C2)CC(=O)[C@H](C)/C=C(\C)[C@@H](O)[C@@H](OC)C(=O)[C@H](C)C[C@H](C)/C=C/C=C/C=C/1C (stereo partly shown) [Example 3, 42-Deoxo-42-(hydroxyamino)rapamycin] | 5.6 | 0.18 | 9.6 ± 0.0 | -84 | –
4 | COC1CC2CCC(C)C(O)(O2)C(=O)C(=O)N2CCCCC2C(=O)OC(C(C)CC2CCC(=NOC(C)(C)C)C(OC)C2)CC(=O)C(C)C=C(C)C(O)C(OC)C(=O)C(C)CC(C)C=CC=CC=C1C (stereo not shown) [Example 7, 2-Deoxy-42-oxoxapamycin 42-[O-(tert-butyl)]-oxime] | – | – | – | – | LAF percent inhibition of T-cell proliferation [1]: 49%
5 | CO[C@H]1C[C@@H]2CC[C@@H](C)[C@@](O)(O2)C(=O)C(=O)N2CCCC[C@H]2C(=O)O[C@H]([C@H](C)C[C@@H]2CCC(=NOCc3ccccn3)[C@H](OC)C2)CC(=O)[C@H](C)/C=C(\C)[C@@H](O)[C@@H](OC)C(=O)[C@H](C)C[C@H](C)/C=C/C=C/C=C/1C [Example 5, 42-Deoxy-42-oxorapamycin 42-[O-(pyridin-2-ylmethyl)]-oxime] | 1.5 | 0.40 | 7.8 ± 0.8 | -53 | –
6 | C=CCON=C1CCC(CC(C)C2CC(=O)C(C)C=C(C)C(O)C(OC)C(=O)C(C)CC(C)C=CC=CC=C(C)C(OC)CC3CCC(C)C(O)(O3)C(=O)C(=O)N3CCCCC3C(=O)O2)CC1OC (stereo not shown) [Example 9, 42-Deoxy-42-oxorapamycin 42-(O-allyl)-oxime] | – | – | – | – | LAF percent inhibition of T-cell proliferation [1]: 43%
7 | CO[C@H]1C[C@@H]2CC[C@@H](C)[C@@](O)(O2)C(=O)C(=O)N2CCCC[C@H]2C(=O)O[C@H]([C@H](C)C[C@@H]2CC[C@@H](O)[C@H](OC)C2)CC(=O)[C@H](C)/C=C(\C)[C@@H](O)[C@@H](OC)C(=O)[C@H](C)C[C@H](C)/C=C/C=C/C=C/1C [rapamycin] | – | – | 11.67 ± 0.63 | -70 | IC50 ([1]; Mus musculus, T-cell): 0.5 to 3.3 nM; antifungal activity, particularly against Candida albicans (Candida albicans): antifungal activity, particularly against Candida albicans; effect in experimental allergic encephalomyelitis model [4]: effective; effect in adjuvant arthritis model (adjuvant arthritis model): effective; inhibition of formation of IgE-like antibodies [5]: effectively inhibited
8 | CO[C@H]1C[C@@H]2CC[C@@H](C)[C@@](O)(O2)C(=O)C(=O)N2CCCC[C@H]2C(=O)O[C@H]([C@H](C)C[C@@H]2CCC(=NOC(N)=O)[C@H](OC)C2)CC(=O)[C@H](C)/C=C(\C)[C@@H](O)[C@@H](OC)C(=O)[C@H](C)C[C@H](C)/C=C/C=C/C=C/1C [Example 4, 42-Deoxy-42-oxorapamycin-42-O-carbamoyloxime] | 2 | 0.25 | 9.5 ± 1.1 | – | –
9 | 42-Deoxy-42-oxorapamycin 42-[O-(prop-2-ynyl)]-oxime [Example 10] | 8.13 | 0.08 | 8.0 ± 1.1 | – | –
10 | 42-Deoxy-42-oxorapamycin 42-[O-(pyridin-4-ylmethyl)]-oxime [Example 6] | 1.8 | 0.31 | 8.0 ± 0.9 | – | –
